{
  "source": "patent US9669054B2",
  "about": "“pH buffered bioactive glass, and its preparation process and use” (CHANGZHOU BIO-SHENG TECHNOLOGY CO., LTD., priority 2011, dated 2017)",
  "type_in_all_cases": "in vivo",
  "key": {"[1]": {"system": "acetic-acid induced chronic gastric ulcers", "experiment": "Treatment of acetic-acid induced chronic gastric ulcers in rats", "procedure": "After fasting for 24 hours, the rats were anesthetized and disinfected in a conventional way, and then was cut from the xiphoid down along the medioventral line to about 2 cm, so as to remove the stomach from the enterocoelia; 5 μl of 100% glacial acetic acid was injected by using a microsyringe into a position close to the muscular layer below the anterior wall serosa of the gastric antrum; when a translucent white spot with a diameter of about 3 mm appeared, the stomach was given back to the enterocoelia, and was enveloped in omentum majus; then, peritoneum, muscular layer and skin were sutured in this order.\nEach drug was divided into 5 groups according to the administration method described above, namely, a model group and four groups with different doses of drugs. Each group of the drugs was administered to 6 to 8 […]. At the third day after the surgery, the treatment started by intragastrically administering drugs to the rats once a day for 7 days, wherein normal saline was administered in the same volume to the rats in the model group instead. […] The following indices were measured:\n(1) ulcer index: the longest diameter in the length direction of an ulcer area and the longest diameter in the width direction perpendicular to the longest diameter in the length direction of the ulcer area were measured by a vernier caliper, and the product of the above two diameters is the ulcer index.\n(2) ulcer inhibition rate: it represents the inhibition effect of a drug on the ulcer index."}, "[2]": {"system": "mouse stress-induced gastric ulcers", "experiment": "Comparative experiment on inhibition of stress-induced gastric ulcers versus representative drugs", "settings": "mice, intragastric, stress in water 15 hours", "quoted_text": "The mice were divided into four groups, to which deionized water (the solvent control group), and three kinds of Weibeisheng with pH 7, 8 and 9 at a dose of 1 g/kg were respectively intragastrically administrated. Two hours later, the mice were subjected to stress in water at 21±1° C. for 15 hours, and were administered again two hours before the end of the stress. Then the animals were killed and autopsy was performed. […]\nTwo hours later, the mice were subjected to stress in water at 21±1° C. for 15 hours (the drug was administered to the Weibeisheng group again two hours before the end of stress). […] After the ulcer index of each group was scored, the inhibition effect of each drug on mouse stress-induced gastric ulcers (namely, the maximum inhibition rate Emax) was calculated.\nThe ratios used in these two Experiment Examples were determined according to the weight of the mouse and the amount of intragastric administration."}, "[3]": {"system": "IL-1β-induced recurrence of acetic-acid induced chronic gastric ulcers", "experiment": "Prevention of IL-1β-induced recurrence of acetic-acid induced chronic gastric ulcers in rats", "settings": "10 mg/kg/d intragastric for 7 days before IL-1β", "procedure": "In this study and experiment, we evaluated the preventive effect of the tested drug (namely, the bioactive glass) on the recurrence of chronic gastric ulcers by adopting the rat model of IL-1β-induced recurrence of acetic-acid induced chronic gastric ulcer, and using omeprazole as the control.\nThe model of acetic-acid induced chronic gastric ulcer was first copied here: After fasting for 24 hours, the rats were anesthetized and disinfected in a conventional way, and then was cut from the xiphoid down along the medioventral line to about 2 cm, so as to remove the stomach from the enterocoelia; 5 μl of 100% glacial acetic acid was injected by using a microsyringe into a position close to the muscular layer below the anterior wall serosa of the gastric antrum; when a translucent white spot with a diameter of about 3 mm appeared, the stomach was given back to the enterocoelia, and was enveloped in omentum majus; then, peritoneum, muscular layer and skin were sutured in this order. 90 days after the injection of acetic acid, a model of gastric ulcer recurrence was copied by intraperitoneal injection of 1 μg/kg of IL-1β according to the method described in “Role of neutrophils in a rat model of gastric ulcer recurrence caused by interleukin-1 beta”, T. Watanabe, T. Arakawa, T. Fukuda, K. Higuchi, and K. Kobayashi, Am J Pathol, 1997, 150:971-979 . […]"}},
  "data": [
    {"smiles": "COc1ccc2[nH]c([S+]([O-])Cc3ncc(C)c(OC)c3C)nc2c1", "note": "(centres unmarked) [Omeprazole, omeprazole]", "values": [
      {"measurement": "ED50", "setting": "[1]; Rattus norvegicus, po, 168 h, rats, intragastric once a day for 7 days, ulcer inhibition rate, read-out: ED50 (median effective dose)", "value": 1.3, "unit": "mg/kg"},
      {"measurement": "median effective dose ED50 for treating chronic gastric ulcers", "setting": "[1]; chronic gastric ulcers, as stated in summary/description", "value": 1.3, "unit": "mg/kg/day"},
      {"measurement": "Emax (maximum inhibition rate)", "setting": "[1]; rats, intragastric once a day for 7 days", "value": "66.2 ± 7.4", "unit": "%"},
      {"measurement": "Emax (% inhibition rate)", "setting": "[2]", "value": 64.8, "unit": "% inhibition rate"},
      {"measurement": "preventive effect on the recurrence of chronic gastric ulcers (inhibition rate)", "setting": "[3]", "value": 50, "unit": "%"}
    ]}
  ]
}
